{
  "source": "paper PMC7995547",
  "about": "“ω‐Imidazolyl‐alkyl derivatives as new preclinical drug candidates for treating non‐alcoholic steatohepatitis” (Physiological Reports, 2021)",
  "type_in_all_cases": "in vivo, Wistar rats",
  "key": {"[1]": {"tested_on": "HFD‐induced NASH rat model (liver)", "assay": "Area of connective tissue in the liver (Mallory‐Azan staining), NASH rat model", "conditions": "compound overall", "experimental": "(§1) Studies were done using Wistar rats of female sex by the Institute of Pharmacology and Biochemistry at Minsk. The animals were 80–90 days old and weighed 180–200 g. They had free access to a liquid Lieber‐DeCarli (LDC) diet (Lieber et al., 2004) and were housed under standard conditions meaning a 12‐h light/dark cycle at 22 ± 2°C and 55 ± 5% humidity.\n(§2) Group 1 was designated as the first control group; it was fed a normal standard solid diet. Group 2, as the second control group, was fed a standard amount of fat as a part of the liquid “physiological,” non‐high fat LDC diet. All other groups received the liquid ‘disease‐causing’ LDC diet (Table 2), including a high content of unsaturated fatty acids.\n(§3) Both LDC diets were in a liquid form as produced by ssniff‐Spezialdiäten GmbH, Soest (Germany). The feed was provided over the entire experimental period of 16 weeks; however, the corresponding experimental substances were only administered in the last four weeks (Figure 3).\n(§4) The experimental substances I‐ol, I‐an, and UDCA were dissolved in a 0.8% aqueous HPMC gel to obtain the following concentrations: (1) I‐ol at 0.4, 4, and 40 mg/kg body weight (b.w.), (2) I‐an at 0.4, 4, and 40 mg/kg b.w., and (3) UDCA at 40 mg/kg b.w. The Group‐2 and −3 rats received only HPMC as placebo. Each test encompassed 6–8 rats that were put up in a separate cage. The rats were fed ad libitum, and their intake per cage was controlled daily. In order to ensure an exact daily reproducible dosage, the experimental substances or only HPMC was administered intragastrically via oral gavage. Basically, the drug therapy of a chronic disease is the more efficient the higher the adherence of the affected patients. This is generally higher with peroral administration than with any other form of application. At the end of the experiment, the animals were sacrificed under fasting conditions, by aorta dissection and exsanguination, after anesthetizing with an intraperitoneal injection of 5% pentobarbital solution.\nLiver tissue sections were subject to the Mallory‐Azan (Heidenhain Azan) staining method for visualizing the connective tissues. This method was a modification of the original Mallory staining protocol, wherein azocarmin with a mixture of aniline blue and orange G was used. In this method, the collagen tissue and basophilic granules turn blue, the muscle tissue and acidophilic granules turn orange to red, and the cell nuclei and cytoplasm turn red. Elastic fibers remain unstained; however, they might turn yellow or pink. The proportion of positively stained liver tissue to the total area of the histological slide was determined quantitatively."}, "[2]": {"tested_on": "HFD‐induced NASH rat model (serum)", "assay": "Adipocytokines and glucose metabolism in serum, NASH rat model", "experimental": "as §1, §2, §3, §4\nThe concentrations of adiponectin and TNFα were measured using ELISA kits sold by BioCat GmbH (Heidelberg, Germany), whereas the one for determining leptin level was procured from BioVendor Laboratory Medicine Inc. (Brno, Czech Republic). Insulin concentration was determined using the radioimmunoassay kit RIO‐insulin‐PG‐J125 (IBOCH, Minsk, Belarus). Serum glucose level was determined based on the “Accu‐Check Active blood glucose” monitoring method developed by Roche‐Diagnostics."}, "[3]": {"tested_on": "HFD‐induced NASH rat model (liver)", "assay": "Oxidative stress (ROS status) in the liver, HFD-induced NASH rat model", "conditions": "liver", "experimental": "as §1\nThe rats were divided into 10 groups based on the diets and experimental substances administered (Figure 2).\nas §2, §3, §4\nThe formation of ROS in the rat liver was measured using NADPH‐induced chemiluminescence as described by Müller‐Peddinghaus et al. (Muller‐Peddinghaus, 1987). Luminol and lucigenin were used for detecting the superoxide radical anion (SRA) and hydrogen peroxide. Liver pieces were homogenized in 0.1 M sodium phosphate buffer, pH 7.4; the homogenates were centrifuged at 9,000 × g at 0°C; and aliquots were used for subsequent measurements. Reduced glutathione (GSH) was estimated via a modified Ellman's method (Ellman, 1959), in which 0.2 mL of the liver homogenate supernatant was added to 1.6 mL of an EDTA/sodium phosphoric acid solution and the absorbance noted at 412 nm against blank values. GSH solution produced immediately before application served as the standard. The end products of the lipid peroxidation reaction were equivalent to the thiobarbituric acid‐reacting substances (TBARS), and their concentration was measured according to the method described by Buege et al. (Buege & Aust, 1978). Enzymatic activities of microsomal glutathione reductase (GR) and cytosolic glutathione peroxidase (GPx) were measured according to the methodology of Buko et al. (Buko et al., 2002). Catalase activity was determined according to the spectroscopic methodology described by Beers et al. (Beers & Sizer, 1952) using hydrogen peroxide as the substrate."}, "[4]": {"tested_on": "HFD‐induced NASH rat model (liver)", "assay": "Liver histopathology, semi‐quantitative evaluation, NASH rat model", "parameters": "key to Steatosis score / Balooning score: 0, none; 1, ≤25%; 2, 26–50%; 3, ≥51–75% of liver parenchyma", "experimental": "as §1, §2, §3, §4\nPieces of liver tissue measuring 1 × 2 × 0.5 mm were chosen randomly and fixed for a week in the mixture of 1% formaldehyde and 1% paraformaldehyde in Sorensen's phosphate buffer (pH 7.4) (Morphisto GmbH, Frankfurt/Main). After this the pieces were kept in 2.5% glutaraldehyde in same buffer, rinsed and then post‐fixed in 1% solution of osmium tetroxide on the Sorensen's phosphate buffer (pH 7.4). After fixation, the liver samples were dehydrated and embedded in the pre‐polymerized mixture of methyl methacrylate and butyl methacrylate (1:4, v/v) containing 2,4‐dichlorbenzoyl peroxide as a catalyst.\n[…] A semi‐quantitative evaluation of the sections was performed according to the procedure described by Koppe et al. (Koppe et al., 2004)."}, "[5]": {"tested_on": "HFD‐induced NASH rat model (liver and serum)", "assay": "End products of fat metabolism (liver and serum lipids), NASH rat model", "conditions": "UDCA 40 mg/kg b.w.", "experimental": "as §1, §2, §3, §4\n(§5) The activities of the liver enzymes aspartate aminotransferase (AST), alanine aminotransferase (ALT), alkaline phosphatase (AP), and γ‐glutamyl transferase (γ‐GT) as well as bilirubin and triglyceride levels in the serum were determined as described by the instructions of BIO‐LA‐tests kit (Erba Lachema, Brno, Czech Republic).\nExtraction of lipids was performed using a solvent composed of chloroform and methanol (2:1 v/v). Thin‐layer chromatography (TLC) was used to separate off neutral lipids and phospholipids. Silicagel G 60 plates (0.25 mm thick) were used. The lipids were separated by ascending chromatography in a system composed of hexane:diethylic ether:glacial acetic acid (73:25:2; v/v/v). They were visualized by iodine vapor and the spots corresponding to triglycerides and cholesterol were scraped off and eluted with methanol for spectrophotometric evaluation. Triglyceride and cholesterol levels were determined using the BIO‐LA‐test kit (Erba Lachema, Brno, Czech Republic). Phospholipid concentration was determined by measuring the levels of phosphomolybdate using an inorganic phosphate reagent containing molybdate (Findlay & Evans, 1987). VLDL level was determined by using the manganese precipitation method (Burstein & Scholnick, 1973) after partial modification (Hirano et al., 2003)."}, "[6]": {"tested_on": "HFD‐induced NASH rat model (serum)", "assay": "Liver enzyme activities and bilirubin in serum, NASH rat model", "experimental": "as §1, §2, §3, §4, §5"}, "[7]": {"conditions": "average over doses (I‐ol, I‐an), UDCA 40 mg/kg b.w."}, "[8]": {"conditions": "40.0 mg/kg b.w. + HFD, H.E.‐stained liver slices"}, "[9]": {"conditions": "average over doses (I‐ol, I‐an)"}, "[10]": {"conditions": "serum, average over doses (I‐ol, I‐an), UDCA 40 mg/kg b.w."}, "[11]": {"conditions": "serum, number: highest concentration (40 mg/kg b.w.), words: compound overall"}},
  "data": [
    {"smiles": "C[C@H](CCC(=O)O)[C@H]1CC[C@H]2[C@@H]3[C@@H](O)C[C@@H]4C[C@H](O)CC[C@]4(C)[C@H]3CC[C@]12C", "note": "[UDCA, ursodeoxycholic acid, reference compound]", "values": [
      {"measurement": "Effect on area of connective tissue in the liver (in words)", "setting": "[1]", "value": "no therapeutic effect"},
      {"measurement": "Decrease in serum glucose level", "setting": "[2]; 40 mg/kg b.w.", "value": 26, "unit": "%"},
      {"measurement": "Reversal of the effect of HFD on serum glucose level", "setting": "[2]; 40 mg/kg b.w.", "value": 100, "unit": "%"},
      {"measurement": "Reduction of the effect of HFD on serum TNF‐α level", "setting": "[2]; average over doses (I‐ol), UDCA 40 mg/kg b.w.", "value": 75, "unit": "%"},
      {"measurement": "Decrease in serum TNF‐α level compared to disease group", "setting": "[2]; [7]", "value": 56, "unit": "%"},
      {"measurement": "Decrease in serum leptin compared to disease group", "setting": "[2]; [7]", "value": 21, "unit": "%"},
      {"measurement": "Increase in serum adiponectin compared to disease group", "setting": "[2]; [7]", "value": 42, "unit": "%"},
      {"measurement": "Reduction of the effect of HFD on serum adiponectin", "setting": "[2]; average over doses (I‐ol, I‐an), UDCA 40 mg/kg b.w. (elevated the concentration by)", "value": 52, "unit": "%"},
      {"measurement": "Reduction of the effect of HFD on serum leptin", "setting": "[2]; average over doses (I‐ol, I‐an), UDCA 40 mg/kg b.w. (reduced leptin concentration)", "value": 72, "unit": "%"},
      {"measurement": "Increase in GR activity compared to disease group", "setting": "[3]; I‐ol, I‐an groups overall, UDCA 40 mg/kg b.w.", "value": 24, "unit": "%"},
      {"measurement": "Decrease in SRA level compared to disease group", "setting": "[3]; average over 0.4, 4, 40 mg/kg b.w. (I‐ol, I‐an), UDCA 40 mg/kg b.w., oral gavage daily, last 4 of 16 weeks HFD", "value": 30, "unit": "%"},
      {"measurement": "Decrease in TBARS level compared to disease group", "setting": "[3]; [7]", "value": 27, "unit": "%"},
      {"measurement": "Reduction of the effect of HFD on the SRA level", "setting": "[3]; [7]", "value": 84, "unit": "%"},
      {"measurement": "Reduction of the effect of HFD on the TBARS level", "setting": "[3]; [7]", "value": 63, "unit": "%"},
      {"measurement": "Effect on GSH level (in words)", "setting": "[3]; compound overall", "value": "overall ineffective"},
      {"measurement": "Decrease in hydrogen peroxide level compared to disease group", "setting": "[3]; highest concentration (40 mg/kg b.w.)", "value": "no significant effect"},
      {"measurement": "Effect of HFD nullified, GR activity increased by (on an average)", "setting": "[3]; relative to the effect of HFD", "value": 99, "unit": "%"},
      {"measurement": "Balooning score", "setting": "[4]; [8]", "value": 0},
      {"measurement": "Inflammation score", "setting": "[4]; [8]", "value": "1 (1, <5 signs of inflammation)"},
      {"measurement": "Steatosis score", "setting": "[4]; [8]", "value": "0–1"},
      {"measurement": "Effect on liver histology (in words)", "setting": "[4]; animals with NASH (HFD)", "value": "improved liver histology"},
      {"measurement": "Decrease in liver triglyceride levels compared to disease group", "setting": "[5]; [9]", "value": 17, "unit": "%"},
      {"measurement": "Reduction of the effect of HFD on liver triglyceride levels", "setting": "[5]; [9]", "value": 39, "unit": "%"},
      {"measurement": "Decrease in liver phospholipid levels compared to disease group", "setting": "[5]; average over doses", "value": "no therapeutic effect"},
      {"measurement": "Decrease in serum LDL cholesterol", "setting": "[5]; average over doses", "value": "non‐significant trend toward lowering the serum LDL level"},
      {"measurement": "Decrease in serum triglyceride levels compared to disease group", "setting": "[5]; average over doses", "value": "no therapeutic effect"},
      {"measurement": "Decrease in serum bilirubin level compared to disease group", "setting": "[6]; average over doses, UDCA 40 mg/kg b.w.", "value": "no therapeutic effect"},
      {"measurement": "Decrease in γ‐GT enzymatic activity compared to disease group", "setting": "[6]; [10]", "value": 30, "unit": "%"},
      {"measurement": "Reduction of the effect of HFD on γ‐GT activity", "setting": "[6]; [10]", "value": 73, "unit": "%"},
      {"measurement": "Decrease in ALT enzymatic activity compared to disease group", "setting": "[6]; serum, highest concentrations (40 mg/kg b.w.)", "value": 15, "unit": "%"},
      {"measurement": "Reduction of the effect of HFD on ALT activity", "setting": "[6]; serum, highest concentrations (40 mg/kg b.w.), b87: dose not stated", "value": 50, "unit": "%"},
      {"measurement": "Decrease in AP enzymatic activity compared to disease group", "setting": "[6]; [11]", "value": "no therapeutic effect"},
      {"measurement": "Decrease in AST enzymatic activity compared to disease group", "setting": "[6]; [11]", "value": "no therapeutic effect"}
    ]}
  ]
}
